Results: US6713645B1, “Substituted tricyclics” (Eli Lilly and Company, priority 1996, dated 2004)

melting point [°C]	Compound
170 to 172	COc1cc(OC(C)C(=O)O)c2c3c(C(N)=O)cccc3n(Cc3ccccc3)c2c1 (stereo not drawn) [Example 5, methyl [9-benzyl-4-carbamoyl-7-methoxycarbazol-5-yl]oxyacetic acid]
253 to 254	Cc1ccc(OCC(=O)O)c2c3c(C(N)=O)cccc3n(Cc3ccccc3)c12 [Example 50, [9-benzyl-5-carbamoyl-1-methylcarbazol-4-yl]oxyacetic acid]
240 to 242	NC(=O)c1cccc2c1c1c(OCC(=O)O)ccc(Cl)c1n2Cc1ccccc1 [Example 54, [9-benzyl-5-carbamoyl-1-chlorocarbazol-4-yl]oxyacetic acid]

Second part, the compound before the results:

Compound	melting point [°C]
COc1cc(OCC(=O)[O-])c2c3c(n(Cc4ccccc4)c2c1)CCCC3C(N)=O.[Na+] (stereo not drawn)	251 to 254
COc1cc(OC)c2c3c(n(Cc4ccccc4)c2c1)CCCC3C(=O)NN (stereo not drawn) [Example 1, 9-benzyl-5,7-dimethoxy-1,2,3,4-tetrahydrocarbazole-4-carboxylic acid hydrazide]	189 to 190
COc1cc(OC)c2c3c(n(Cc4ccccc4)c2c1)CCCC3C(N)=O (stereo not drawn) [Example 2, 9-benzyl-5,7-dimethoxy-1,2,3,4-tetrahydrocarbazole-4-carboxamide]	190 to 192
